Assay results as given in patent US20260258032A1, “TYROSINE KINASE 2 INHIBITORS AND USES THEREOF” (BIOGEN MA INC., priority 2022, published 2026).
Structures can show the parent of a compound that is named as a salt.

How the values were obtained:
JH2 domain of human Tyk2 = molecular target: T1, JH2 domain of human Tyk2 (Homo sapiens, UniProt P29597); assay: JH2 biochemical assay (TR-FRET probe displacement); assay type: binding
T1 construct: 10×His-tagged TYK2 JH2 domain (amino acid 575-876)
Protocol: The inhibitory potency of compounds of the disclosure against the kinase activity of recombinantly generated JH2 domain of human Tyk2 was evaluated in a plate-based assay using a TR-FRET assay platform. Briefly, 2 nM of recombinant JH2 domain [10×His-tagged TYK2 JH2 domain (amino acid 575-876)] was combined with 2 nM probe ((S)-6-amino-9-(2-carboxy-4-((1-(3-(8-methyl-5-(methylamino)-8H-imidazo[4,5-d]thiazolo[5,4-b]pyridin-2-yl)phenyl)ethyl)carbamoyl)phenyl)-3-iminio-5-sulfo-3H-xanthene-4-sulfonate), 0.1 nM Tb-labeled anti-His antibody, and compounds of disclosure for 60 minutes. Compounds are tested at either […] top concentration, 10 points of 3-fold dilution. The TR-FRET signal […] by compounds and signal was calculated by taking the ratio of fluorescence at 520 nm and 495 nm. The data was normalized and the percent activity versus log concentration of compound was fitted with a 4-parameter logistic model to generate IC50 curves.

[1] = system: Tyk2 kinase activity on STAT4; assay: pSTAT4 cell assay (MSD, NK92 cells); assay type: cell-based; settings: compounds 1 hr
Protocol: The inhibitory potency of compounds of the disclosure against the Tyk2 kinase activity on STAT4 was evaluated using an MSD-platform plate-based assay format. NK92 cells natively expressing STAT4 and Tyk2 were serum-starved to reduce background phosphorylation levels, then cells were treated compounds for 1 hr with a 10-point four-fold dilution series starting at 10 μM. Cells were then stimulated with 30 ng/mL IL2 for 15 minutes. Cells were lysed and […] levels were quantitated using an MSD plate-based assay with anti-STAT4 antibodies. The data were normalized and the percent activity versus log concentration of compound were fitted with a 4-parameter logistic model to generate to generate IC50 curves.

[2] = TR-FRET probe displacement, JH2 domain of human Tyk2

T1 sequence (P29597 575-876): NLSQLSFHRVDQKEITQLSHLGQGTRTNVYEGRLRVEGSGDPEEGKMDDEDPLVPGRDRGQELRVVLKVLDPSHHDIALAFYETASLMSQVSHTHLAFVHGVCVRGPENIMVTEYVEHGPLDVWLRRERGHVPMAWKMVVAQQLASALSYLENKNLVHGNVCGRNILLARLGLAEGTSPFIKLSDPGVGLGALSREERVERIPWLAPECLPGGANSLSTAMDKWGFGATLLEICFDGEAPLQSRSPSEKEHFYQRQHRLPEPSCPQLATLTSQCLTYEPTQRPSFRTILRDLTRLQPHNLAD

| SMILES | IC50 (JH2 domain of human Tyk2; [2]) [nM] | IC50 ([1]; then stimulated 15 minutes) [nM] | IC50 (JH2 domain of human Tyk2; JH2 biochemical assay) [nM] | IC50 ([1]; stimulated 15 minutes) [nM] |
| --- | --- | --- | --- | --- |
| CC(=O)Nc1cc2c(cn1)C1(CC1)CN2c1cc(C)cc(N2CCC(C)(O)C2)n1 (stereo not drawn) [Example 405, N-(1′-(6-(3-hydroxy-3-methylpyrrolidin-1-yl)-4-methylpyridin-2-yl)-1′,2′-dihydrospiro[cyclopropane-1,3′-pyrrolo[3,2-c]pyridin]-6′-yl)acetamide trifluoroacetate] | 100 to 1000 | ≥ 1000 | – | – |
| CC(=O)Nc1cc2c(cn1)C1(CC1)CN2c1cc([C@@H]2C[C@@H]2C#N)nc(C(C)(F)F)n1 (racemic) [Example 73, cis-rac-N-(1′-(6-(2-cyanocyclopropyl)-2-(1,1-difluoroethyl)pyrimidin-4-yl)-1′,2′-dihydrospiro[cyclopropane-1,3′-pyrrolo[3,2-c]pyridin]-6′-yl)acetamide or trans-rac-N-(1′-(6-(2-cyanocyclopropyl)-2-(1,1-difluoroethyl)pyrimidin-4-yl)-1′,2′-dihydrospiro[cyclopropane-1,3′-pyrrolo[3,2-c]pyridin]-6′-yl)acetamide] | – | – | ≤ 10 | 10 to 100 |
| CC(=O)Nc1cc2c(cn1)C1(CC1)CN2c1cc(C)cc(-c2cnn(C3CC3)c2)n1 [Example 264, N-(1′-(6-(1-cyclopropyl-1H-pyrazol-4-yl)-4-methylpyridin-2-yl)-1′,2′-dihydrospiro[cyclopropane-1,3′-pyrrolo[3,2-c]pyridin]-6′-yl)acetamide trifluoroacetate] | – | – | 10 to 100 | ≥ 1000 |
| CC(=O)Nc1cc2c(cn1)C1(CC1)CN2c1cc(-c2cnn(C3CCC3)c2)nc(C(C)(F)F)n1 [Example 382, N-(1′-(6-(1-cyclobutyl-1H-pyrazol-4-yl)-2-(1,1-difluoroethyl)pyrimidin-4-yl)-1′,2′-dihydrospiro[cyclopropane-1,3′-pyrrolo[3,2-c]pyridin]-6′-yl)acetamide trifluoroacetate] | ≤ 10 | ≤ 10 | – | – |
| CC(=O)Nc1cc2c(cn1)C1(CC1)CN2c1cc(C)nc(OC2CCC2)n1 [Example 138, N-(1′-(2-cyclobutoxy-6-methylpyrimidin-4-yl)-1′,2′-dihydrospiro[cyclopropane-1,3′-pyrrolo[3,2-c]pyridin]-6′-yl)acetamide] | – | – | 10 to 100 | ≥ 1000 |
| COCCCc1nc(C)cc(N2CC3(CC3)c3cnc(NC(C)=O)cc32)n1 [Example 71, N-(1′-(2-(3-methoxypropyl)-6-methylpyrimidin-4-yl)-1′,2′-dihydrospiro[cyclopropane-1,3′-pyrrolo[3,2-c]pyridin]-6′-yl)acetamide] | – | – | 10 to 100 | ≥ 1000 |
| CC(=O)Nc1cc2c(cn1)C1(CC1)CN2c1cc(C)cc(N2CC(C#N)C2)n1 [Example 194, N-(1′-(6-(3-cyanoazetidin-1-yl)-4-methylpyridin-2-yl)-1′,2′-dihydrospiro[cyclopropane-1,3′-pyrrolo[3,2-c]pyridin]-6′-yl)acetamide] | – | – | ≤ 10 | ≥ 1000 |
| CC(=O)Nc1cc2c(cn1)C1(CC1)CN2c1cc(NC(C)C2COC2)nc(C(C)(F)F)n1 (stereo not drawn) [Example 175, N-(1′-(2-(1,1-difluoroethyl)-6-((1-(oxetan-3-yl)ethyl)amino)pyrimidin-4-yl)-1′,2′-dihydrospiro[cyclopropane-1,3′-pyrrolo[3,2-c]pyridin]-6′-yl)acetamide] | – | – | ≤ 10 | 100 to 1000 |
| CC(=O)Nc1cc2c(cn1)C1(CC1)CN2c1cc(C)nc(OCC(C)(C)O)n1 [Example 286, N-(1′-(2-(2-hydroxy-2-methylpropoxy)-6-methylpyrimidin-4-yl)-1′,2′-dihydrospiro[cyclopropane-1,3′-pyrrolo[3,2-c]pyridin]-6′-yl)acetamide] | – | – | 10 to 100 | 100 to 1000 |
| COC(C)(C)CNc1cc(N2CC3(CC3)c3cnc(NC(C)=O)cc32)nc(C(C)(F)F)n1 [Example 158, N-(1′-(2-(1,1-difluoroethyl)-6-((2-methoxy-2-methylpropyl)amino)pyrimidin-4-yl)-1′,2′-dihydrospiro[cyclopropane-1,3′-pyrrolo[3,2-c]pyridin]-6′-yl)acetamide trifluoroacetate] | – | – | ≤ 10 | ≤ 10 |
| COC1(c2nc(C)cc(N3CC4(CC4)c4cnc(NC(C)=O)cc43)n2)CCC1 [Example 104, N-(1′-(2-(1-methoxycyclobutyl)-6-methylpyrimidin-4-yl)-1′,2′-dihydrospiro[cyclopropane-1,3′-pyrrolo[3,2-c]pyridin]-6′-yl)acetamide] | – | – | ≤ 10 | 100 to 1000 |
| CC(=O)Nc1cc2c(cn1)C1(CC1)CN2c1cc(Cl)nc(C(C)(C)F)n1 [Example 283, N-(1′-(6-chloro-2-(2-fluoropropan-2-yl)pyrimidin-4-yl)-1′,2′-dihydrospiro[cyclopropane-1,3′-pyrrolo[3,2-c]pyridin]-6′-yl)acetamide] | – | – | ≤ 10 | 100 to 1000 |
| CC(=O)Nc1cc2c(cn1)C1(CC1)CN2c1cc(C)nc(OC(C)C)n1 [Example 362, N-(1′-(2-isopropoxy-6-methylpyrimidin-4-yl)-1′,2′-dihydrospiro[cyclopropane-1,3′-pyrrolo[3,2-c]pyridin]-6′-yl)acetamide trifluoroacetate] | – | – | – | 100 to 1000 |
| CC(=O)Nc1cc2c(cn1)C1(CC1)CN2c1cc(C)nc(-c2cccnc2)n1 [Example 106, N-(1′-(6-methyl-2-(pyridin-3-yl)pyrimidin-4-yl)-1′,2′-dihydrospiro[cyclopropane-1,3′-pyrrolo[3,2-c]pyridin]-6′-yl)acetamide] | – | – | – | ≥ 1000 |
| CC(=O)Nc1cc2c(cn1)C1(CC1)CN2c1cc(C)nc(-c2cccc(F)c2)n1 [Example 111, N-(1′-(2-(3-fluorophenyl)-6-methylpyrimidin-4-yl)-1′,2′-dihydrospiro[cyclopropane-1,3′-pyrrolo[3,2-c]pyridin]-6′-yl)acetamide] | – | – | – | ≥ 1000 |
| CO[C@H]1C[C@H](Oc2cc(N3CC4(CC4)c4cnc(NC(C)=O)cc43)nc(C(C)(F)F)c2)C1 [Example 92, N-(1′-(6-(1,1-difluoroethyl)-4-((1r,3r)-3-methoxycyclobutoxy)pyridin-2-yl)-1′,2′-dihydrospiro[cyclopropane-1,3′-pyrrolo[3,2-c]pyridin]-6′-yl)acetamide] | – | – | – | 10 to 100 |
| CC(=O)Nc1cc2c(cn1)C1(CC1)CN2c1cc(C)nc(-c2coc(C)n2)n1 [Example 109, N-(1′-(6-methyl-2-(2-methyloxazol-4-yl)pyrimidin-4-yl)-1′,2′-dihydrospiro[cyclopropane-1,3′-pyrrolo[3,2-c]pyridin]-6′-yl)acetamide] | – | – | – | 100 to 1000 |
| CC(=O)Nc1cc2c(cn1)C1(CC1)CN2c1cc(Oc2ccnnc2)nc(C(C)(F)F)n1 [Example 147, N-(1′-(2-(1,1-difluoroethyl)-6-(pyridazin-4-yloxy)pyrimidin-4-yl)-1′,2′-dihydrospiro[cyclopropane-1,3′-pyrrolo[3,2-c]pyridin]-6′-yl)acetamide trifluoroacetate] | – | – | – | ≥ 1000 |
| CC(=O)Nc1cc2c(cn1)C1(CC1)CN2c1cc(C(C)C#N)nc(C(C)(F)F)n1 (stereo not drawn) [Example 302, N-(1′-(6-(1-cyanoethyl)-2-(1,1-difluoroethyl)pyrimidin-4-yl)-1′,2′-dihydrospiro[cyclopropane-1,3′-pyrrolo[3,2-c]pyridin]-6′-yl)acetamide] | – | – | – | 100 to 1000 |
| CC(=O)Nc1cc2c(cn1)C1(CC1)CN2c1cc(C)nc(N2CCC(N(C)C)C2)n1 (stereo not drawn) [Example 215, N-(1′-(2-(3-(dimethylamino)pyrrolidin-1-yl)-6-methylpyrimidin-4-yl)-1′,2′-dihydrospiro[cyclopropane-1,3′-pyrrolo[3,2-c]pyridin]-6′-yl)acetamide] | – | – | – | ≥ 1000 |
| CC(=O)Nc1cc2c(cn1)C1(CC1)CN2c1cc(C)nc(-c2cnn(C3CCC3)c2)n1 [Example 246, N-(1′-(2-(1-cyclobutyl-1H-pyrazol-4-yl)-6-methylpyrimidin-4-yl)-1′,2′-dihydrospiro[cyclopropane-1,3′-pyrrolo[3,2-c]pyridin]-6′-yl)acetamide] | – | – | – | ≥ 1000 |
| CC(=O)Nc1cc2c(cn1)C1(CC1)CN2c1cc(C)nc(N(C)C(C)C)n1 [Example 115, N-(1′-(2-(isopropyl(methyl)amino)-6-methylpyrimidin-4-yl)-1′,2′-dihydrospiro[cyclopropane-1,3′-pyrrolo[3,2-c]pyridin]-6′-yl)acetamide] | – | – | – | ≥ 1000 |
| CC(=O)Nc1cc2c(cn1)C1(CC1)CN2c1cc(C)nc(-c2ccccc2)n1 [Example 105, N-(1′-(6-methyl-2-phenylpyrimidin-4-yl)-1′,2′-dihydrospiro[cyclopropane-1,3′-pyrrolo[3,2-c]pyridin]-6′-yl)acetamide] | – | – | – | ≥ 1000 |
| CC(=O)Nc1cc2c(cn1)C1(CC1)CN2c1cc(CCCO)nc(C(C)(F)F)n1 [Example 295, N-(1′-(2-(1,1-difluoroethyl)-6-(3-hydroxypropyl)pyrimidin-4-yl)-1′,2′-dihydrospiro[cyclopropane-1,3′-pyrrolo[3,2-c]pyridin]-6′-yl)acetamide] | – | – | – | 10 to 100 |
